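Results reflect a 48-hour exposure of cells in 96-well plates to compound at five concentrations. The concentration for full growth arrest is given as TGI.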
Experiments:
Assay in all cases: NCI tumour cell line growth inhibition, 48 h
SF-268 CNS = test system: SF-268 CNS
EKVX NSCLC = test system: EKVX NSCLC
TK-10 renal = test system: TK-10 renal
HL-60(TB) leukemia = test system: HL-60(TB) leukemia
NCI-H460 lung = test system: NCI-H460 lung
MALME-3M melanoma = test system: MALME-3M melanoma
HOP-62 NSCLC = test system: HOP-62 NSCLC
HCT-15 colon = test system: HCT-15 colon
LOX IMVI melanoma = test system: LOX IMVI melanoma
K-562 leukemia = test system: K-562 leukemia
UACC-257 melanoma = test system: UACC-257 melanoma
ACHN renal = test system: ACHN renal
NCI/ADR-RES ovarian = test system: NCI/ADR-RES ovarian
SK-MEL-28 melanoma = test system: SK-MEL-28 melanoma
MCF7 breast = test system: MCF7 breast
MOLT-4 leukemia = test system: MOLT-4 leukemia
SW-620 colon = test system: SW-620 colon
T-47D breast = test system: T-47D breast
A549 NSCLC = test system: A549 NSCLC
HOP-92 NSCLC = test system: HOP-92 NSCLC

| Compound | TGI (SF-268 CNS) [µM] | TGI (EKVX NSCLC) [µM] | TGI (TK-10 renal) [µM] | TGI (HL-60(TB) leukemia) [µM] | TGI (NCI-H460 lung) [µM] | TGI (MALME-3M melanoma) [µM] | TGI (HOP-62 NSCLC) [µM] | TGI (HCT-15 colon) [µM] | TGI (LOX IMVI melanoma) [µM] | TGI (K-562 leukemia) [µM] | TGI (UACC-257 melanoma) [µM] | TGI (ACHN renal) [µM] | TGI (NCI/ADR-RES ovarian) [µM] | TGI (SK-MEL-28 melanoma) [µM] | TGI (MCF7 breast) [µM] | TGI (MOLT-4 leukemia) [µM] | TGI (SW-620 colon) [µM] | TGI (T-47D breast) [µM] | TGI (A549 NSCLC) [µM] | TGI (HOP-92 NSCLC) [µM] |
| --- | --- | --- | --- | --- | --- | --- | --- | --- | --- | --- | --- | --- | --- | --- | --- | --- | --- | --- | --- | --- |
| CCCCN=C(c1ccccc1)N1CCOCC1 | > 100 | > 100 | > 100 | > 100 | > 100 | > 100 | > 100 | > 100 | > 100 | > 100 | > 100 | > 100 | > 100 | > 100 | > 100 | > 100 | > 100 |  |  |  |
| O=C1C(=Cc2ccccc2O)N=C(c2ccccc2)N1n1c(-c2ccccc2)nc2ccccc2c1=O | 88.3 | > 100 | > 100 | 31.9 | > 100 | > 100 | 96.8 | > 100 | > 100 | 78.2 | 69.1 | 89.3 |  | > 100 | 64.3 | 77.7 | > 100 | 93 | > 100 |  |
| COC(=O)C1CCCN1C(=O)C(Cc1cn(S(=O)(=O)c2ccc(C)cc2)cn1)NC(=O)OC(C)(C)C (centres undefined) |  | > 100 | > 100 | > 100 | > 100 | > 100 | > 100 | > 100 |  | > 100 | > 100 | > 100 |  | > 100 | > 100 | > 100 | > 100 |  | > 100 | > 100 |
| C=C1CN2CC(=C)CN(C1)CS(=O)(=O)N1CC(=C)CN(CC(=C)C1)S(=O)(=O)N1CC(=C)CN(CC(=C)C1)S(=O)(=O)C2 | > 100 | > 100 | 51.5 | > 100 | > 100 | 86.4 | 53.7 | > 100 | > 100 | > 100 | 94.4 | > 100 | > 100 | 45.6 | > 100 | > 100 | > 100 |  | > 100 | > 100 |
| COc1cccc(/C=N/n2c(C)n[nH]c2=O)c1 | > 100 | > 100 |  |  | > 100 | > 100 | > 100 | > 100 |  | > 100 | > 100 | > 100 | > 100 | > 100 | > 100 | > 100 | > 100 | > 100 | > 100 |  |
| CSc1ncnc2c1ncn2CCC#N | > 100 | > 100 | > 100 | > 100 | > 100 | > 100 | > 100 |  | > 100 | > 100 | > 100 | > 100 | > 100 | > 100 | > 100 | > 100 | > 100 |  | > 100 | > 100 |

From PubChem BioAssay (NCI)
